Tests used:
[1] = molecular target: CK1ε (Homo sapiens (Human), UniProt P49674); assay: CK1ε kinase assay (Caliper LABCHIP electrophoretic separation of fluoresceinated peptide substrate and product); assay type: biochemical; details: 200 pM enzyme, 50 μM ATP, 22 hours at room temperature
Summary of the method: (§1)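 Each reaction was incubated 22 hours at room temperature and terminated with EDTA. Read-out was microfluidic electrophoretic separation of fluoresceinated substrate and phospho-product.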

[2] = molecular target: CK1δ (Homo sapiens (Human), UniProt P48730); assay: CK1δ kinase assay (Caliper LABCHIP electrophoretic separation of fluoresceinated peptide substrate and product); assay type: biochemical; details: 200 pM enzyme, 50 μM ATP, 22 hours at room temperature
Sequence of CK1δ (P48730 whole entry): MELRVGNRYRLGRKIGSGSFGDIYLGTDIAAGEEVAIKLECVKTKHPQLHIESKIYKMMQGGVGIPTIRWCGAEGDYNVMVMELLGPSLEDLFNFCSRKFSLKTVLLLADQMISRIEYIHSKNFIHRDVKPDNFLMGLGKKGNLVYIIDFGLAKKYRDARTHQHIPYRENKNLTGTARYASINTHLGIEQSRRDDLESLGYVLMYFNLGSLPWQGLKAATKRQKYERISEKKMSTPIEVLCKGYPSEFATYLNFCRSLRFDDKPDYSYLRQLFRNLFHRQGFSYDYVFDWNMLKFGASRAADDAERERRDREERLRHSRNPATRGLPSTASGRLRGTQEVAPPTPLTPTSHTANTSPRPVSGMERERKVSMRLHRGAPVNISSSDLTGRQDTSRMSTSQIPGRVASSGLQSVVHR
Summary of the method: as §1

Sequence of CK1ε (P49674 whole entry): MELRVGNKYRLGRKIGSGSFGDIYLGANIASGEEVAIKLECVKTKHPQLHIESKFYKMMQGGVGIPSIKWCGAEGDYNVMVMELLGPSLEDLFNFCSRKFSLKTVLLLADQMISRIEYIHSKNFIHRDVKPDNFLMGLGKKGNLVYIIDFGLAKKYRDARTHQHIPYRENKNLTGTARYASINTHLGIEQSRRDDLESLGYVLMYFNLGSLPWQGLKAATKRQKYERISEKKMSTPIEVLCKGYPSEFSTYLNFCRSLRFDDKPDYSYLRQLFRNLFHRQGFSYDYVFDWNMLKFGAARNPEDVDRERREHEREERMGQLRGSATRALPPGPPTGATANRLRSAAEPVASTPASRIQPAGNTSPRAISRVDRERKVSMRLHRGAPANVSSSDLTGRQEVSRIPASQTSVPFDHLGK

| SMILES | IC50 [1] [nM] | IC50 [2] [nM] |
| --- | --- | --- |
| Cc1nc(-c2ccc(F)cc2)c(-c2ccc3nc(NC(=O)c4snnc4-c4ccccc4)cn3n2)n1C [Compound 340, N-(6-(4-(4-fluorophenyl)-1,2-dimethyl-1H-imidazol-5-yl)imidazo[1,2-b]pyridazin-2-yl)-4-phenyl-1,2,3-thiadiazole-5-carboxamide] | 6.28 | 0.4 |
| Cc1nc(-c2ccc(F)cc2)c(-c2ccc3nc(NC(=O)c4cc5c(F)cccc5[nH]4)cn3n2)n1C [Compound 341, 4-fluoro-N-(6-(4-(4-fluoro-phenyl)-1,2-dimethyl-1H-imidazol-5-yl)imidazo[1,2-b]pyridazin-2-yl)-1H-indole-2-carboxamide] | 8.85 | 1.32 |
| Cc1nc(-c2ccc(F)cc2)c(-c2ccc3nc(NC(=O)c4cccc5cccnc45)cn3n2)n1C [Compound 344, N-(6-(4-(4-fluorophenyl)-1,2-dimethyl-1H-imidazol-5-yl)imidazo[1,2-b]pyridazin-2-yl)-8-quinolinecarboxamide] | 113 | 14.5 |
| CC(=O)N1CCCC1C(=O)Nc1cn2nc(-c3c(-c4ccc(F)cc4)nc(C)n3C)ccc2n1 [Compound 353, 1-acetyl-N-(6-(4-(4-fluoro-phenyl)-1,2-dimethyl-1H-imidazol-5-yl)imidazo[1,2-b]pyridazin-2-yl)-L-pro-linamide] | 74.2 | 4.94 |
| Cc1nc(-c2ccc(F)cc2)c(-c2ccc3nc(NC(=O)c4ccn(C)n4)cn3n2)n1C [Compound 354, N-(6-(4-(4-fluorophenyl)-1,2-dimethyl-1H-imidazol-5-yl)imidazo[1,2-b]pyridazin-2-yl)-1-methyl-1H-pyrazole-3-carboxamide] | 10.6 | 1.42 |
| Cc1nc(-c2ccc(F)cc2)c(-c2ccc3nc(NC(=O)c4cocn4)cn3n2)n1C [Compound 355, N-(6-(4-(4-fluorophenyl)-1,2-dimethyl-1H-imidazol-5-yl)imidazo[1,2-b]pyridazin-2-yl)-1,3-oxazole-4-carboxamide] | 38.7 | 3.8 |
| Cc1nc(-c2ccc(F)cc2)c(-c2ccc3nc(NC(=O)c4cccn4C)cn3n2)n1C [Compound 357, N-(6-(4-(4-fluorophenyl)-1,2-dimethyl-1H-imidazol-5-yl)imidazo[1,2-b]pyridazin-2-yl)-1-methyl-1H-pyrrole-2-carboxamide] | 17.6 | 1.49 |
| Cc1nocc1C(=O)Nc1cn2nc(-c3c(-c4ccc(F)cc4)nc(C)n3C)ccc2n1 [Compound 361, N-(6-(4-(4-fluorophenyl)-1,2-dimethyl-1H-imidazol-5-yl)imidazo[1,2-b]pyridazin-2-yl)-3-methyl-4-isoxazole-carboxamide] | 1260 | 74.8 |
| Cc1nc(-c2ccc(F)cc2)c(-c2ccc3nc(NC(=O)c4cn(C)cn4)cn3n2)n1C [Compound 362, N-(6-(4-(4-fluorophenyl)-1,2-dimethyl-1H-imidazol-5-yl)imidazo[1,2-b]pyridazin-2-yl)-1-methyl-1H-imidazole-4-carboxamide] | 87.5 | 6.34 |
| CC(=O)N1CCCC1C(=O)Nc1cn2nc(-c3c(-c4ccc(F)cc4)nc(C)n3C)ccc2n1 (stereo not shown) [Compound 363, 1-acetyl-N-(6-(4-(4-fluoro-phenyl)-1,2-dimethyl-1H-imidazol-5-yl)imidazo[1,2-b]pyridazin-2-yl)prolinamide] | 26.2 | 2.36 |
| Cc1oncc1C(=O)Nc1cn2nc(-c3c(-c4ccc(F)cc4)nc(C)n3C)ccc2n1 [Compound 365, N-(6-(4-(4-fluorophenyl)-1,2-dimethyl-1H-imidazol-5-yl)imidazo[1,2-b]pyridazin-2-yl)-5-methyl-4-isoxazole-carboxamide] | 1110 | 103 |
| Cc1nc(-c2ccc(F)cc2)c(-c2ccc3nc(NC(=O)C4CCC(=O)N4)cn3n2)n1C (stereo not shown) [Compound 366, N-(6-(4-(4-fluorophenyl)-1,2-dimethyl-1H-imidazol-5-yl)imidazo[1,2-b]pyridazin-2-yl)-5-oxoprolinamide] | 25.1 | 1.72 |
| Cc1nnc(C(=O)Nc2cn3nc(-c4c(-c5ccc(F)cc5)nc(C)n4C)ccc3n2)o1 [Compound 367, N-(6-(4-(4-fluorophenyl)-1,2-dimethyl-1H-imidazol-5-yl)imidazo[1,2-b]pyridazin-2-yl)-5-methyl-1,3,4-oxa-diazole-2-carboxamide] | 49.7 | 3.65 |
| Cc1cc(C(=O)Nc2cn3nc(-c4c(-c5ccc(F)cc5)nc(C)n4C)ccc3n2)nn1C [Compound 369, N-(6-(4-(4-fluorophenyl)-1,2-dimethyl-1H-imidazol-5-yl)imidazo[1,2-b]pyridazin-2-yl)-1,5-dimethyl-1H-pyrazole-3-carboxamide] | 8.74 | 1.41 |
| Cc1nc(-c2ccc(F)cc2)c(-c2ccc3nc(NC(=O)c4cnn[nH]4)cn3n2)n1C [Compound 370, N-(6-(4-(4-fluorophenyl)-1,2-dimethyl-1H-imidazol-5-yl)imidazo[1,2-b]pyridazin-2-yl)-1H-1,2,3-trizole-4-carboxamide] | 16.2 | 1.12 |
| Cc1nc(C(=O)Nc2cn3nc(-c4c(-c5ccc(F)cc5)nc(C)n4C)ccc3n2)co1 [Compound 371, N-(6-(4-(4-fluorophenyl)-1,2-dimethyl-1H-imidazol-5-yl)imidazo[1,2-b]pyridazin-2-yl)-2-methyl-1,3-oxazole-4-carboxamide] | 19.8 | 2.5 |
| Cc1nc(C(=O)Nc2cn3nc(-c4c(-c5ccc(F)cc5)nc(C)n4C)ccc3n2)c[nH]1 [Compound 372, N-(6-(4-(4-fluorophenyl)-1,2-dimethyl-1H-imidazol-5-yl)imidazo[1,2-b]pyridazin-2-yl)-2-methyl-1H-imidazole-4-carboxamide] | 28.3 | 2.19 |

Compounds with a lower IC50 [1], results first:

| IC50 [1] [nM] | IC50 [2] [nM] | SMILES |
| --- | --- | --- |
| 2.58 | 0.271 | Cc1nc(-c2ccc(F)cc2)c(-c2ccc3nc(NC(=O)c4ccc5cccnc5c4)cn3n2)n1C [Compound 337, N-(6-(4-(4-fluorophenyl)-1,2-dimethyl-1H-imidazol-5-yl)imidazo[1,2-b]pyridazin-2-yl)-7-quinolinecarboxamide] |
| 0.768 | 0.368 | Cc1c[nH]c(C(=O)Nc2cn3nc(-c4c(-c5ccc(F)cc5)nc(C)n4C)ccc3n2)c1 [Compound 338, N-(6-(4-(4-fluorophenyl)-1,2-dimethyl-1H-imidazol-5-yl)imidazo[1,2-b]pyridazin-2-yl)-4-methyl-1H-pyrrole-2-carboxamide] |
| 1.61 | 0.187 | Cc1nc(-c2ccc(F)cc2)c(-c2ccc3nc(NC(=O)c4ccc5cnccc5c4)cn3n2)n1C [Compound 339, N-(6-(4-(4-fluorophenyl)-1,2-dimethyl-1H-imidazol-5-yl)imidazo[1,2-b]pyridazin-2-yl)isoquinoline-6-carboxamide] |
| 4.89 | 1.41 | Cc1nc(-c2ccc(F)cc2)c(-c2ccc3nc(NC(=O)c4c[nH]c5ccccc45)cn3n2)n1C [Compound 342, N-(6-(4-(4-fluorophenyl)-1,2-dimethyl-1H-imidazol-5-yl)imidazo[1,2-b]pyridazin-2-yl)-1H-indole-3-carboxamide] |
| 2.17 | 0.921 | Cc1nc(-c2ccc(F)cc2)c(-c2ccc3nc(NC(=O)c4c[nH]c5ncccc45)cn3n2)n1C [Compound 343, N-(6-(4-(4-fluorophenyl)-1,2-dimethyl-1H-imidazol-5-yl)imidazo[1,2-b]pyridazin-2-yl)-1H-pyrrolo[2,3-b] pyridine-3-carboxamide] |
| 1.19 | 0.379 | COc1cccc2[nH]c(C(=O)Nc3cn4nc(-c5c(-c6ccc(F)cc6)nc(C)n5C)ccc4n3)cc12 [Compound 347, N-(6-(4-(4-fluorophenyl)-1,2-dimethyl-1H-imidazol-5-yl)imidazo[1,2-b]pyridazin-2-yl)-4-methoxy-1H-indole-2-carboxamide] |
| 5.77 | 1.62 | Cc1nc(-c2ccc(F)cc2)c(-c2ccc3nc(NC(=O)c4cc[nH]c4)cn3n2)n1C [Compound 348, N-(6-(4-(4-fluorophenyl)-1,2-dimethyl-1H-imidazol-5-yl)imidazo[1,2-b]pyridazin-2-yl)-1H-pyrrole-3-carboxamide] |
| 3.24 | 0.593 | Cc1nc(-c2ccc(F)cc2)c(-c2ccc3nc(NC(=O)c4ccnn4C)cn3n2)n1C [Compound 352, N-(6-(4-(4-fluorophenyl)-1,2-dimethyl-1H-imidazol-5-yl)imidazo[1,2-b]pyridazin-2-yl)-1-methyl-1H-pyrazole-5-carboxamide] |
| 1.91 | 0.513 | Cc1nc(-c2ccc(F)cc2)c(-c2ccc3nc(NC(=O)c4ccc(C#N)cc4)cn3n2)n1C [Compound 356, 4-cyano-N-(6-(4-(4-fluoro-phenyl)-1,2-dimethyl-1H-imidazol-5-yl)imidazo[1,2-b]pyridazin-2-yl)benzamide] |
| 3.92 | 0.534 | Cc1nc(-c2ccc(F)cc2)c(-c2ccc3nc(NC(=O)c4ccc[nH]4)cn3n2)n1C [Compound 358, N-(6-(4-(4-fluorophenyl)-1,2-dimethyl-1H-imidazol-5-yl)imidazo[1,2-b]pyridazin-2-yl)-1H-pyrrole-2-carbox-amide] |
| 3.17 | 0.599 | Cc1nc(-c2ccc(F)cc2)c(-c2ccc3nc(NC(=O)c4cnn(C)c4)cn3n2)n1C [Compound 359, N-(6-(4-(4-fluorophenyl)-1,2-dimethyl-1H-imidazol-5-yl)imidazo[1,2-b]pyridazin-2-yl)-1-methyl-1H-pyrazole-4-carboxamide] |
| 4.01 | 0.566 | Cc1nc(-c2ccc(F)cc2)c(-c2ccc3nc(NC(=O)c4cn[nH]c4)cn3n2)n1C [Compound 364, N-(6-(4-(4-fluorophenyl)-1,2-dimethyl-1H-imidazol-5-yl)imidazo[1,2-b]pyridazin-2-yl)-1H-pyrazole-4-carboxamide] |

Source: patent US9556179B2 (BRISTOL-MYERS SQUIBB COMPANY, priority 2012, dated 2017)
